Counter-ions that a name gives are not always drawn.
Tests used:
Test in all cases: Method 1: intracellular Ca2+ release (FLIPR, Calcium 5) in recombinant CHO-K1 cells
Format in all cases: cell-based
human S1PR1 receptor = target: T1, human S1PR1 receptor (Homo sapiens, UniProt P21453); settings: (1): determined with method 1; read-out: S1P1 EC50
T1 construct: host or cells: CHO-K1
How it was run: (§1)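 Read-out: FLIPR Tetra fluorescence of Calcium 5-loaded CHO-K1 cells (receptor + aequorin + Gq/i5) after agonist addition at RT. Values are EC50s from nonlinear fits normalized to the phospho-fingolimod reference curve. Buffer HBSS with Ca2+/Mg2+, Hepes, probenecid, 0.1% BSA, pH 7.4.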

human S1PR5 receptor = target: T2, human S1PR5 receptor (Homo sapiens, UniProt Q9H228); settings: agonist potency, determined with method 1 (symbols A-D); read-out: S1P5 EC50 range
T2 construct: host or cells: CHO-K1
T2 sequence (Q9H228 whole entry): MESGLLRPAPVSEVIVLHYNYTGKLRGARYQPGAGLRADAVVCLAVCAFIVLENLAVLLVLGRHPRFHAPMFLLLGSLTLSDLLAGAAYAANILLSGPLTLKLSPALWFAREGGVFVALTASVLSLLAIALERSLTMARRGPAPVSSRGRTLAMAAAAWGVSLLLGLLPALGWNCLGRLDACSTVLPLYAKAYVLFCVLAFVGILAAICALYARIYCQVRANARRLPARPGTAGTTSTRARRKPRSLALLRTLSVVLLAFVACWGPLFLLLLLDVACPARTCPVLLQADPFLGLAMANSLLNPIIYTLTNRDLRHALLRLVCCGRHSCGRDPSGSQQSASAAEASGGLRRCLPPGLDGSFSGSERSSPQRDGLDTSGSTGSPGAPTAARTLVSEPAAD
How it was run: as §1

human S1PR4 receptor = target: T3, human S1PR4 receptor (Homo sapiens, UniProt O95977); settings: (1): determined with method 1; read-out: S1P4 EC50
T3 construct: host or cells: CHO-K1
T3 sequence (O95977 1-384): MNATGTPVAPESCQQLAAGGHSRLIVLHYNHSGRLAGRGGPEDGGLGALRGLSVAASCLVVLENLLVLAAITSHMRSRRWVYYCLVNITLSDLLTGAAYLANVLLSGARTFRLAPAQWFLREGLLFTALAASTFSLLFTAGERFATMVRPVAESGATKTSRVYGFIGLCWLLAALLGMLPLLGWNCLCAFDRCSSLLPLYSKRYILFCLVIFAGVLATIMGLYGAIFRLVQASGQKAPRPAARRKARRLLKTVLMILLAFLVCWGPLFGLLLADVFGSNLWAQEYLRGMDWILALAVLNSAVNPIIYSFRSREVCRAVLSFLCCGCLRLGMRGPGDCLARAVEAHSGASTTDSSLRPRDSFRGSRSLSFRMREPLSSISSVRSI
How it was run: as §1

human S1PR3 receptor = target: T4, human S1PR3 receptor (Homo sapiens, UniProt Q99500); settings: (1): determined with method 1; read-out: S1P3 EC50
T4 construct: host or cells: CHO-K1
T4 sequence (Q99500 whole entry): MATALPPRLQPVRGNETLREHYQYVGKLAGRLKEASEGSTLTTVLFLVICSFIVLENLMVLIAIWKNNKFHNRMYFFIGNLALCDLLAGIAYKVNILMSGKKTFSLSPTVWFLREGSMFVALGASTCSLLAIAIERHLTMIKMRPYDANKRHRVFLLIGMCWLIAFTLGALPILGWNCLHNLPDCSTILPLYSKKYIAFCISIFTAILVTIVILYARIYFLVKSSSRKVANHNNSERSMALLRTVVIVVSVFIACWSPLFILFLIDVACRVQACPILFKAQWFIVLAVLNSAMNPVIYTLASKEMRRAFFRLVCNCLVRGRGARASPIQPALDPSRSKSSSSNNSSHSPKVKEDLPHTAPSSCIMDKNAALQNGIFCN
How it was run: as §1

T1 sequence (P21453 whole entry): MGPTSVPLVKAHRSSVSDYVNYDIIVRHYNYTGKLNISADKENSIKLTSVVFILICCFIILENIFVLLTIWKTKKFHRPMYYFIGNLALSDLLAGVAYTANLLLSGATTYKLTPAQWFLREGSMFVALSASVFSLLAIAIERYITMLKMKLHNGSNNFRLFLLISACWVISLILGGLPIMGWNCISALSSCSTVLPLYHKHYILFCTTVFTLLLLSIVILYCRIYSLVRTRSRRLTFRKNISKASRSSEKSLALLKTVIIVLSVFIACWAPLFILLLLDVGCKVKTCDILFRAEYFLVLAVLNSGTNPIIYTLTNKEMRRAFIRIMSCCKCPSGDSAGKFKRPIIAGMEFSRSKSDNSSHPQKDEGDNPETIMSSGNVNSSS

Row | Compound | EC50 (human S1PR1 receptor) [nM] | EC50 (human S1PR5 receptor) [nM] | EC50 (human S1PR4 receptor) [nM] | EC50 (human S1PR3 receptor) [nM]
1 | CC(CCN1CCc2nc(-c3ccc(OCc4cccc(Cl)c4)cc3)c(F)cc2C1)C(=O)O (stereo not shown) [Compound 182, 4-(2-(4-((3-chlorobenzyl)oxy)phenyl)-3-fluoro-7,8-dihydro-1,6-naphthyridin-6(5H)-yl)-2-methylbutanoic acid] | > 1000 | < 10 | > 1000 | > 1000
2 | O=C(O)C1CC(N2CCc3nc(C#Cc4cc(F)cc(F)c4)ccc3C2)C1 (stereo not shown) [Compound 127, 3-(2-((3,5-difluorophenyl)ethynyl)-7,8-dihydro-1,6-naphthyridin-6(5H)-yl)cyclobutanecarboxylic acid] | > 1000 | 1000 to 10000 | > 1000 | > 1000
3 | CC(CC(=O)O)CN1CCc2nc(-c3ccc(OCc4ccc(Cl)cc4)cc3)ncc2C1 (stereo not shown) [Compound 259, 4-(2-(4-((4-chlorobenzyl)oxy)phenyl)-7,8-dihydropyrido[4,3-d]pyrimidin-6(5H)-yl)-3-methylbutanoic acid] | > 1000 | 10 to 100 | > 1000 | > 1000
4 | CC(C)c1ccc(C#Cc2ncc3c(n2)CCN(C2CC(C(=O)O)C2)C3)cc1 (stereo not shown) [Compound 58, 3-(2-((4-isopropylphenyl)ethynyl)-7,8-dihydropyrido[4,3-d]pyrimidin-6(5H)-yl)cyclobutanecarboxylic acid] | > 1000 | 1000 to 10000 | > 1000 | > 1000
5 | CC(C)c1ccc(C#Cc2ccc3c(n2)CCN(C2CC(C(=O)O)C2)C3)cc1 (stereo not shown) [Compound 124, 3-(2-((4-isopropylphenyl)ethynyl)-7,8-dihydro-1,6-naphthyridin-6(5H)-yl)cyclobutanecarboxylic acid] | > 1000 | 1000 to 10000 | > 1000 | > 1000
6 | Cc1cc(-c2cc3c(cn2)CN(CCC(=O)O)CC3)ccc1OCc1ccc(Cl)cc1 [Compound 172, 3-(6-(4-((4-chlorobenzyl)oxy)-3-methylphenyl)-3,4-dihydro-2,7-naphthyridin-2(1H)-yl)propanoic acid] | > 1000 | < 10 | > 1000 | > 1000
7 | CC(CN1CCc2nc(-c3ccc(OCc4ccc(Cl)cc4)cc3)ncc2C1)C(=O)O (stereo not shown) [Compound 12, 3-(2-(4-((4-chlorobenzyl)oxy)phenyl)-7,8-dihydropyrido[4,3-d]pyrimidin-6(5H)-yl)-2-methylpropanoic acid] | > 1000 | < 10 | > 1000 | > 1000
8 | O=C(O)CCN1CCc2nc(-c3ccc(OCc4ccc(Cl)cc4)cc3)ncc2C1 [Compound 74, 3-(2-(4-((4-chlorobenzyl)oxy)phenyl)-7,8-dihydropyrido[4,3-d]pyrimidin-6(5H)-yl)propanoic acid] | > 1000 | < 10 | > 1000 | > 1000
9 | CC(CC(=O)O)CN1CCc2nc(-c3ccc(OCc4ccc(F)c(F)c4)cc3)ncc2C1 (stereo not shown) [Compound 228, 4-(2-(4-((3,4-difluorobenzyl)oxy)phenyl)-7,8-dihydropyrido[4,3-d]pyrimidin-6(5H)-yl)-3-methylbutanoic acid] | > 1000 | < 10 | > 1000 | > 1000
10 | CCc1cccc(Cl)c1COc1ccc(-c2ncc3c(n2)CCN(CC(C)C(=O)O)C3)cc1 (stereo not shown) [Compound 18, 3-(2-(4-((2-chloro-6-ethylbenzyl)oxy)phenyl)-7,8-dihydropyrido[4,3-d]pyrimidin-6(5H)-yl)-2-methylpropanoic acid] | > 1000 | 10 to 100 | < 1000 | > 1000
11 | O=C(O)CCN1CCc2nc(-c3ccc(OCc4ccccc4)cc3)c(F)cc2C1 [Compound 186, 3-(2-(4-(benzyloxy)phenyl)-3-fluoro-7,8-dihydro-1,6-naphthyridin-6(5H)-yl)propanoic acid] | > 1000 | < 10 | > 1000 | > 1000
12 | O=C(O)CCCN1CCc2nc(Cc3c(F)cccc3F)ncc2C1 [Compound 51, 4-(2-(2,6-difluorobenzyl)-7,8-dihydropyrido[4,3-d]pyrimidin-6(5H)-yl)butanoic acid] | > 1000 | 1000 to 10000 | > 1000 | > 1000
13 | O=C(O)C1(CN2CCc3nc(-c4ccc(OCc5ccc(Cl)cc5)cc4)ncc3C2)CC1 [Compound 215, 1-((2-(4-((4-chlorobenzyl)oxy)phenyl)-7,8-dihydropyrido[4,3-d]pyrimidin-6(5H)-yl)methyl)cyclopropanecarboxylic acid] | > 1000 | 1000 to 10000 | > 1000 | > 1000
14 | CC(CC(=O)O)CN1CCc2nc(-c3ccc(OCc4ccc(F)cc4)cc3)ncc2C1 (stereo not shown) [Compound 225, 4-(2-(4-((4-fluorobenzyl)oxy)phenyl)-7,8-dihydropyrido[4,3-d]pyrimidin-6(5H)-yl)-3-methylbutanoic acid] | > 1000 | < 10 | > 1000 | > 1000
15 | Cc1cccc(C)c1COc1ccc(-c2ncc3c(n2)CCN(CC(=O)O)C3)cc1 [Compound 33, 2-(2-(4-((2,6-dimethylbenzyl)oxy)phenyl)-7,8-dihydropyrido[4,3-d]pyrimidin-6(5H)-yl)acetic acid] | > 1000 | 100 to 1000 | < 1000 | < 1000
16 | O=C(O)CCN1CCc2nc(-c3ccc(OCc4ccc(Cl)cc4)cc3)cnc2C1 [Compound 178, 3-(2-(4-((4-chlorobenzyl)oxy)phenyl)-7,8-dihydropyrido[3,4-b]pyrazin-6(5H)-yl)propanoic acid] | > 1000 | < 10 | > 1000 | > 1000

Next, values leading:

Row | EC50 (human S1PR1 receptor) [nM] | EC50 (human S1PR5 receptor) [nM] | EC50 (human S1PR4 receptor) [nM] | EC50 (human S1PR3 receptor) [nM] | Compound
17 | > 1000 | < 10 | > 1000 | > 1000 | CC(CC(=O)O)CN1CCc2nc(-c3ccc(OCc4ccc(Cl)cc4)cc3F)ncc2C1 (stereo not shown) [Compound 236, 4-(2-(4-((4-chlorobenzyl)oxy)-2-fluorophenyl)-7,8-dihydropyrido[4,3-d]pyrimidin-6(5H)-yl)-3-methylbutanoic acid]
18 | > 1000 | < 10 | > 1000 | > 1000 | O=C(O)CCN1CCc2nc(-c3ccc(OCc4cccc(OC(F)(F)F)c4)cc3)ncc2C1 [Compound 82, 3-(2-(4-((3-(trifluoromethoxy)benzyl)oxy)phenyl)-7,8-dihydropyrido[4,3-d]pyrimidin-6(5H)-yl)propanoic acid]
19 | > 1000 | < 10 | > 1000 | > 1000 | Cc1cc(-c2ncc3c(n2)CCN(CC(C)CC(=O)O)C3)ccc1OCc1ccccc1 (stereo not shown) [Compound 251, 4-(2-(4-(benzyloxy)-3-methylphenyl)-7,8-dihydropyrido[4,3-d]pyrimidin-6(5H)-yl)-3-methylbutanoic acid]
20 | < 1000 | < 10 | < 1000 | > 1000 | CC(CC(=O)O)CN1CCc2nc(-c3ccc(OCc4ccc(C(F)(F)F)cc4)cc3)ncc2C1 (stereo not shown) [Compound 233, 3-methyl-4-(2-(4-((4-(trifluoromethyl)benzyl)oxy)phenyl)-7,8-dihydropyrido[4,3-d]pyrimidin-6(5H)-yl)butanoic acid]
21 | > 1000 | < 10 | > 1000 | > 1000 | Cc1cc(-c2ncc3c(n2)CCN(CC(C)CC(=O)O)C3)ccc1OCc1cccc(Cl)c1 (stereo not shown) [Compound 252, 4-(2-(4-((3-chlorobenzyl)oxy)-3-methylphenyl)-7,8-dihydropyrido[4,3-d]pyrimidin-6(5H)-yl)-3-methylbutanoic acid]
22 | < 1000 | < 10 | > 1000 | > 1000 | Cc1ccc(COc2ccc(-c3ncc4c(n3)CCN(CC(C)CC(=O)O)C4)cc2)cc1 (stereo not shown) [Compound 248, 3-methyl-4-(2-(4-((4-methylbenzyl)oxy)phenyl)-7,8-dihydropyrido[4,3-d]pyrimidin-6(5H)-yl)butanoic acid]
23 | > 1000 | < 10 | > 1000 | > 1000 | O=C(O)CCN1CCc2cc(-c3ccc(OCc4ccc(Cl)cc4)cc3)ncc2C1 [Compound 174, 3-(6-((4(4-chlorobenzyl)oxy)phenyl)-3,4-dihydro-2,7-naphthyridin-2(1H)-yl)propanoic acid]
24 | > 1000 | 10 to 100 | > 1000 | > 1000 | CC(CCC(=O)O)N1CCc2nc(-c3ccc(OCc4cccc(Cl)c4)cc3)ncc2C1 (stereo not shown) [Compound 65, 4-(2-(4-((3-chlorobenzyl)oxy)phenyl)-7,8-dihydropyrido[4,3-d]pyrimidin-6(5H)-yl)pentanoic acid]
25 | < 1000 | < 10 | > 1000 | > 1000 | CC(CC(=O)O)CN1CCc2nc(-c3ccc(OCc4cccc(F)c4F)cc3)ncc2C1 (stereo not shown) [Compound 226, 4-[2-[4-[(2,3-difluorophenyl)methoxy]phenyl]-7,8-dihydro-5H-pyrido[4,3-d]pyrimidin-6-yl]-3-methyl-butanoic acid 2,2,2-trifluoroacetic acid salt]

Source: US10556907B2 (AbbVie Inc., priority 2015, dated 2020)
